Results as given in US9376376B2, “Substitute diphenylamine compounds use thereof as antitumor agents” (SINOCHEM CORPORATION, priority 2012, dated 2016).

Columns and labels:
[1] = tested on: leukemia HL-60 cells; test: In vitro cell inhibition assay (MTT method), HL-60; type: cell-based, human; conditions: 48 h
Description: (§1) The human cancer cell lines used for this assay were lung cancer A549 and leukemia HL-60.
(§2) The A549 or HL-60 cells were picked up from cell incubator, after washed for twice using PBS, cells were digested by 0.25% trypsin, and then add medium to terminate the digestion. After cells were collected using centrifuge and re-suspended, count cells under inverted microscope and add medium to make a density was 5×10^4 cells/mL. After 100 μL aliquots were added to each well of 96-well microtiter plates, cells were cultured in 5% incubator for overnight at 37° C., then the different concentration compounds were added to each well. After incubation for 48 h, MTT solution was added to each well and plates were then incubated for 4 h. The MTT tetrazolium was reduced to formazan by living cells. Then the formazan crystals were dissolved though adding DMSO to each well. The absorbance was read at 570 nm with a microplate reader.

[2] = tested on: lung cancer A549 cell; test: In vitro cell inhibition assay (MTT method), A549; type: cell-based, human; conditions: 48 h incubation
Description: as §1, §2

Compound	Proliferation inhibitory effect of the compounds on HL-60 cells (% of Control) ([1]; concentration 0.01 μM)	Proliferation inhibitory effect of the compounds on HL-60 cells (% of Control) ([1]; concentration 0.1 μM)	Proliferation inhibitory effect of the compounds on HL-60 cells (% of Control) ([1]; concentration 1 μM)	Proliferation inhibitory effect of the compounds on HL-60 cells (% of Control) ([1]; concentration 10 μM)	Proliferation inhibitory effect of the compounds on HL-60 cells (% of Control) ([1]; concentration 100 μM)	Proliferation inhibitory effect of the compounds on A549 cell (% of Control) ([2]; 0.01 μM)	Proliferation inhibitory effect of the compounds on A549 cell (% of Control) ([2]; 0.1 μM)	Proliferation inhibitory effect of the compounds on A549 cell (% of Control) ([2]; 1 μM)	Proliferation inhibitory effect of the compounds on A549 cell (% of Control) ([2]; 10 μM)	Proliferation inhibitory effect of the compounds on A549 cell (% of Control) ([2]; 100 μM)
N#Cc1c(Cl)c(Cl)c(Nc2c(Cl)cccc2Cl)c(C#N)c1Cl [Compound 6-41]	6.5 % of Control	3.9 % of Control	7.8 % of Control	86.5 % of Control	87.9 % of Control	3.8 % of Control	0.7 % of Control	13.1 % of Control	84.0 % of Control	92.0 % of Control
N#Cc1cc(Cl)c(Nc2c(Cl)c(Cl)c(C#N)c(Cl)c2C#N)c(Cl)c1 [Compound 6-98]	−2.5 % of Control	10.1 % of Control	30.0 % of Control	91.7 % of Control	95.1 % of Control	−2.5 % of Control	−0.7 % of Control	11.7 % of Control	90.1 % of Control	93.2 % of Control
N#Cc1c(Cl)c(Cl)c(Nc2c(Cl)cc([N+](=O)[O-])cc2Cl)c(C#N)c1Cl [Compound 6-99]	8.6 % of Control	34.2 % of Control	60.2 % of Control	56.5 % of Control	54.8 % of Control	0 % of Control	0 % of Control	55.0 % of Control	83.6 % of Control	86.3 % of Control
N#Cc1c(Cl)c(Cl)c(Nc2c(Cl)cc([N+](=O)[O-])cc2Br)c(C#N)c1Cl [Compound 6-113]	−3.8 % of Control	8.8 % of Control	9.3 % of Control	85.4 % of Control	93.1 % of Control	9.2 % of Control	2.9 % of Control	2.6 % of Control	75.6 % of Control	93.7 % of Control
N#Cc1c(Cl)c(Cl)c(Nc2c(Br)cc([N+](=O)[O-])cc2Br)c(C#N)c1Cl [Compound 6-114]	−0.4 % of Control	10.0 % of Control	20.7 % of Control	87.5 % of Control	93.2 % of Control	10.1 % of Control	2.8 % of Control	11.5 % of Control	82.1 % of Control	94.9 % of Control
Cc1c(Cl)c([N+](=O)[O-])cc([N+](=O)[O-])c1Nc1c(F)cccc1F [Compound 22-33]	−4.9 % of Control	−1.8 % of Control	54.3 % of Control	66.2 % of Control	81.2 % of Control	−1.6 % of Control	−1.1 % of Control	61.3 % of Control	78.7 % of Control	90.3 % of Control
Cc1c(Cl)c([N+](=O)[O-])cc([N+](=O)[O-])c1Nc1c(F)cc(Cl)cc1F [Compound 22-93]	−3.6 % of Control	−7.1 % of Control	6.8 % of Control	70.4 % of Control	95.4 % of Control	−2.2 % of Control	−1.8 % of Control	−0.2 % of Control	73.7 % of Control	91.4 % of Control
Cc1c(Cl)c([N+](=O)[O-])cc([N+](=O)[O-])c1Nc1c(Cl)cc(C(F)(F)F)cc1Cl [Compound 22-101]	8.3 % of Control	5.5 % of Control	48.6 % of Control	73.4 % of Control	64.7 % of Control	13.7 % of Control	21.4 % of Control	19.1 % of Control	66.4 % of Control	97.5 % of Control
Cc1c(Cl)c([N+](=O)[O-])cc([N+](=O)[O-])c1Nc1c(Cl)cc(Cl)cc1C#N [Compound 22-120]	9.6 % of Control	20.5 % of Control	19.7 % of Control	63.1 % of Control	61.0 % of Control	0.8 % of Control	0 % of Control	9.8 % of Control	86.8 % of Control	92.1 % of Control
Cc1cc([N+](=O)[O-])cc([N+](=O)[O-])c1Nc1c(Cl)cc(C#N)cc1Cl [Compound 30-104]	21.8 % of Control	31.6 % of Control	65.3 % of Control	88.0 % of Control	93.3 % of Control	2.4 % of Control	1.1 % of Control	−0.1 % of Control	78.4 % of Control	91.8 % of Control
Cc1cc([N+](=O)[O-])cc([N+](=O)[O-])c1Nc1c(Cl)cc(Cl)cc1C#N [Compound 30-120]	23.6 % of Control	39.2 % of Control	70.6 % of Control	95.9 % of Control	95.7 % of Control	−1.5 % of Control	−0.9 % of Control	−0.7 % of Control	84.0 % of Control	92.0 % of Control
